Data on three compounds can be found in PMC9663686, “Proline, hydroxyproline, and pyrrolidone carboxylic acid derivatives as highly efficient but reversible transdermal permeation enhancers” (Scientific Reports, 2022).

One experiment relates to human skin. As to the kind of experiment: Diclofenac permeation through human skin in Franz diffusion cells with co-applied enhancer. In kind it is in vitro ADME. The settings on record: for CDERMIS, diclofenac concentration in dermis / CEPIDERMIS, diclofenac concentration in epidermis: 1% enhancer co-applied with 3% DC in 60% PG, after 48 h permeation, mean ± SEM. The method, then: Donor samples for reversibility and infrared studies contained 1% enhancer in 60% PG. All samples were thoroughly mixed, incubated at 32 °C for 24 h, and, if needed, carefully resuspended before applying on the skin. The effects of the studied enhancers on the solubility of model drugs were assessed as described previously.
The permeation-enhancing potencies of the prepared compounds were evaluated on human skin in Franz diffusion cells. Human skin was slowly thawed, cut into 2 × 2 cm pieces, fixed in Teflon holders with 1-cm^2 circular permeation areas, and mounted into Franz cells epidermal side up. The acceptor compartment (15.9 ± 0.1 ml) was filled with phosphate-buffered saline at pH 7.4 with 0.005% gentamicin (PBS) and stirred at 32 °C throughout the experiment. The skin integrity was checked by electrical impedance (any skin sample with the impedance < 10 kΩ was excluded). Then, 100 µl of a donor sample (infinite dose) was applied to the skin and covered with a glass slide. Acceptor phase samples (300 µl) were collected at predetermined time intervals for 48 h, to reach steady-state and were replaced by the same volume of fresh PBS. […] The drug concentrations were measured by HPLC (see supplementary data).
The flux of the model drug through the skin Jss (µg/cm^2/h) was calculated from the linear region of this plot. The enhancement ratio (ER) was calculated as the ratio of flux with and without an enhancer.
After the permeation experiment, the cells were dismounted, the skin was carefully washed with PBS, and the permeation area of the skin (1 cm^2) was punched off. After heating the skin fragments to 80 °C for 1 min, the epidermis (E) was peeled off the dermis (D), individually weighed and extracted by 1 and 2 ml, respectively, of an extraction solvent (identical to the mobile phase for the drug HPLC analysis, see supplementary data) for 24 h. The drug concentration was measured by HPLC (see supplementary data).

Another experiment concerns 3T3 mouse fibroblasts. Kind of experiment: Neutral red (NR) uptake cell viability assay, 3T3. The settings on record: NIH3T3, 48-h incubation, read-out: IC50, 3T3 cells, NR assay. In kind it is cell-based. An excerpt:
Next, the in vitro toxicities of the most promising enhancers Pro3 and Pro4, along with the parent Pro2, on spontaneously immortalized human keratinocytes (HaCaT) and Swiss albino mouse embryonic fibroblasts (3T3) were studied (Fig. 3). […] The cellular toxicities were further probed using the 3-(4,5-dimethylthiazol-2-yl)-2,5-diphenyltetrazolium bromide (MTT) uptake assay, based on the transformation of yellow MTT into purple formazan by mitochondrial reductases of living cells. The MTT assay also yielded toxicity values in tens of µM with trends to higher toxicity with a longer acyl chain length (thus also higher lipophilicity) of enhancers (Fig. 3).
Cell viability was determined via 3-(4,5-dimethylthiazol-2-yl)-2,5-diphenyltetrazolium bromide (MTT) and neutral red (NR) uptake assays after 48-h incubation with the enhancers (see Supplementary data for details).
Both cell lines were cultivated in Dulbecco’s modified Eagle’s medium (DMEM, Lonza, Basel, Switzerland) supplemented with 10% heat-inactivated fetal bovine serum (Merck, Darmstadt, Germany), 10 mM HEPES buffer (Merck, Darmstadt, Germany), and 1% penicillin/streptomycin solution (Lonza, Basel, Switzerland) in 75-cm^2 tissue culture flasks (TPP, Trasadingen, Switzerland) at 37°C in a humidified atmosphere of 5% CO2. Subconfluent cells were sub-cultured every 3-4 days.
For toxicity studies, the stock-solutions of studied compounds were prepared in dimethyl sulfoxide (DMSO). These stock samples were diluted to the required concentration by the cell culture medium immediately before adding them onto the cells. The amount of DMSO applied to the cells was kept under its intrinsic measurable toxicity limit (below 1 vol.%). […]
Another approach used for the toxicity assessment was the neutral red (NR) uptake assay. […] The plates were shaken at rt for 30 min, and the optical density of the soluble NR was measured at λ = 540 nm using a Tecan Infinite 200 M plate reader.
The viability of each experimental group was expressed as the percentage of the untreated controls incubated under the same conditions (100%).

Where [1] appears, read: 1% enhancer with 3% DC in 60% PG.

As to `CCCCCCCCCCCCOC(=O)C1CCCN1C(C)=O` (centres unmarked) [Pro2, N-acetyl proline dodecyl ester], in the experiment on human skin, the “CDERMIS, diclofenac concentration in dermis” value (from here on “CDERMIS … in dermis”) was 1.08 ± 0.09 µg/mg and the “CEPIDERMIS, diclofenac concentration in epidermis” value (“CEPIDERMIS … in epidermis” below) amounted to 7.16 ± 0.79 µg/mg. Also, the IC50 with 3T3 mouse fibroblasts was found to be 84.09 ± 0.49 µM.

On to `CCCCCCCCCCCCOC(=O)C1CCCN1C(=O)CC` (centres unmarked) [Pro3], for which, in the experiment on human skin, the “CDERMIS … in dermis” value was found to be 1.54 ± 0.28 µg/mg and the “CEPIDERMIS … in epidermis” value is given as 11.18 ± 2.39 µg/mg. Besides, in the experiment with 3T3 mouse fibroblasts, the IC50 is 57.2 ± 2.58 µM.

Take `CCCCCCCCCCCCOC(=O)C1CCCN1C(=O)CCC` (centres unmarked) [Pro4]: in the experiment with human skin, the “CDERMIS … in dermis” value came to 1.71 ± 0.31 µg/mg and the “CEPIDERMIS … in epidermis” value amounted to 12.70 ± 2.71 µg/mg. Moreover, in the experiment on human skin (setting [1]), the “fold increase of DC retention in dermis over control” value is on record as “fourfold” and the “fold increase of DC retention in epidermis over control” value is given as 3 fold. In addition, in the experiment with 3T3 mouse fibroblasts, the IC50 turned out to be 56.8 ± 2.45 µM.
